This assay has as its system E. multilocularis metacestodes. Kind of assay: PGI-assay: drug-induced damage on in vitro cultured metacestodes (Pathogen Box screening cascade and EC50). The class given is cell-based, Echinococcus multilocularis. The conditions noted are these: for PGI release, % of the Tx-100 control, 5d / PGI release, % of the Tx-100 control, 12d: 10 µM, singlets; for PGI release, % of the Tx-100 control, 5d / PGI release, % of Tx-100 control, average, 5d: 5 days of incubation; for PGI release, % of the Tx-100 control, 12d / PGI release, % of Tx-100 control, average, 12d: 12 days of incubation.

The mark [1] stands for this setting: confirmatory screening at 10 µM in triplicates, values as % of Tx-100 control.

For the compound `CCOc1ccc(-c2nc(CNCCc3ccc(F)cc3)cs2)cc1` [MMV688938], the “PGI release, % of the Tx-100 control, 5d” value is recorded as 2.65% and the “PGI release, % of the Tx-100 control, 12d” value is given as 3.55%.

Regarding `O=C(NC1CCN(c2ccnc3ccccc23)C1)c1cccc(C(F)(F)F)c1` (stereo not shown) [MMV023388], the “PGI release, % of the Tx-100 control, 5d” value is -0.73% and the “PGI release, % of the Tx-100 control, 12d” value was -1.23%.

As for `N#Cc1nc(-c2ccccc2F)oc1NCCc1ccccc1` [MMV676384], the “PGI release, % of the Tx-100 control, 5d” value amounted to 0.0223% and the “PGI release, % of the Tx-100 control, 12d” value is recorded as -0.18%.

For `CC(C)(C)OC(=O)N1CCC(Cn2nc(-c3cnc4ccccc4c3)c3c(N)ncnc32)CC1` [MMV688364], the “PGI release, % of the Tx-100 control, 5d” value is reported as 0.11% and the “PGI release, % of the Tx-100 control, 12d” value is given as -0.13%.

Regarding `Nc1ncnc2n[nH]c(Cc3cccc4ccccc34)c12` [MMV688469], the “PGI release, % of the Tx-100 control, 5d” value is recorded as -0.61% and the “PGI release, % of the Tx-100 control, 12d” value is reported as -1.22%.

With `CS(=O)(=O)N1CCC(Cn2nc(Cc3cccc4ccccc34)c3c(N)ncnc32)CC1` [MMV676050], the “PGI release, % of the Tx-100 control, 5d” value is on record as 0.49% and the “PGI release, % of the Tx-100 control, 12d” value is on record as 0.36%.

Turning to `Cc1cc(OCC(=O)NCc2ccccc2)c2cc(Br)ccc2n1` [MMV687747], the “PGI release, % of the Tx-100 control, 5d” value is on record as -0.47% and the “PGI release, % of the Tx-100 control, 12d” value amounted to 1.30%.

As for `CC(C)(CN)c1nc(-c2ccc(Cl)c(O)c2)c(-c2ccnc(N)n2)[nH]1` [MMV030734], the “PGI release, % of the Tx-100 control, 5d” value is -0.31% and the “PGI release, % of the Tx-100 control, 12d” value is on record as -0.25%.

Turning to `NC(CC(=O)c1ccc(Cl)cc1Cl)C(Cl)(Cl)Cl` (stereo not shown) [MMV676468], the “PGI release, % of the Tx-100 control, 5d” value is on record as -0.27% and the “PGI release, % of the Tx-100 control, 12d” value is -0.82%.

For the compound `CC1CCCCN1C(=O)NCCc1coc(-c2ccc(F)cc2)n1` (stereo not shown) [MMV688797], the “PGI release, % of the Tx-100 control, 5d” value is on record as -3.70% and the “PGI release, % of the Tx-100 control, 12d” value was -1.62%.

For the compound `CC(C)(C)CN1C(=O)C(c2ccccc2)(c2ccccc2)N=C1N` [MMV026550], the “PGI release, % of the Tx-100 control, 5d” value was 3.21% and the “PGI release, % of the Tx-100 control, 12d” value stood at 3.61%.

Turning to `C[C@H](C(N)=O)N1CCCC[C@H]1c1ccc(OCc2cccc(F)c2)cc1` [MMV676269], the “PGI release, % of the Tx-100 control, 5d” value amounted to 1.52% and the “PGI release, % of the Tx-100 control, 12d” value stood at 1.07%.

Turning to `Clc1ccc(CCNc2cc(-c3ccccc3)nc3ncnn23)cc1` [MMV688889], the “PGI release, % of the Tx-100 control, 5d” value is on record as -3.56% and the “PGI release, % of the Tx-100 control, 12d” value is recorded as -0.70%.

On to `C[C@H](c1ccc2c(c1)CCCC2)N(C)c1ncc2c(N)nc(N)nc2n1` [MMV690103], for which the “PGI release, % of the Tx-100 control, 5d” value is -3.58% and the “PGI release, % of the Tx-100 control, 12d” value is listed as 41.60%. Under setting [1], the “PGI release, % of Tx-100 control, average, 5d” value (“PGI release, % … average, 5d” below) is -0.48% and the “PGI release, % of Tx-100 control, average, 12d” value (“PGI release, % … average, 12d” below) was 4.22%.

With `Cc1cnc(N2CCN[C@@H](Cc3ccccc3)C2)nc1Oc1ccc(-n2ccnc2)cc1` [MMV687765], the “PGI release, % of the Tx-100 control, 5d” value is given as 4.75% and the “PGI release, % of the Tx-100 control, 12d” value was 6.17%.

For the compound `COc1cccc(NC(=O)c2c(NC(=O)c3cccnc3)sc3c2CCC3)c1` [MMV228911], the “PGI release, % of the Tx-100 control, 5d” value is reported as 6.25% and the “PGI release, % of the Tx-100 control, 12d” value is listed as 18.91%.

In the case of `CCCCc1ccc(C(=O)Nc2nccc3ccccc23)nc1` [MMV687254], the “PGI release, % of the Tx-100 control, 5d” value is -0.76% and the “PGI release, % of the Tx-100 control, 12d” value is on record as -1.68%.

Take `CCOC(=O)c1noc(N)c1-c1ccccc1` [MMV1236379]: the “PGI release, % of the Tx-100 control, 5d” value came to 3.51% and the “PGI release, % of the Tx-100 control, 12d” value is listed as 4.87%.

With `CCCc1ccc(S(=O)(=O)Nc2ccc(CN3CCN(CC4CC4)CC3)cc2)cc1` [MMV688125], the “PGI release, % of the Tx-100 control, 5d” value is listed as -0.08% and the “PGI release, % of the Tx-100 control, 12d” value was -1.69%.

Turning to `COc1ccc(-c2onc(C(F)(F)F)c2-c2ccc(Cl)cc2)c(O)c1` [MMV688766], the “PGI release, % of the Tx-100 control, 5d” value worked out at 7.61% and the “PGI release, % of the Tx-100 control, 12d” value is reported as 28.52%. In addition, under setting [1], the “PGI release, % … average, 5d” value was determined as 1.11% and the “PGI release, % … average, 12d” value came out at 0.26%.

As for `OCc1ccc(-c2cncc(Nc3cccc(Cl)c3)c2)cc1` [MMV026468], the “PGI release, % of the Tx-100 control, 5d” value came out at 9.97% and the “PGI release, % of the Tx-100 control, 12d” value was 54.98%. Moreover, where the note is “1 µM, triplicates”, the “PGI release, % … average, 5d” value was 0.57% and the “PGI release, % … average, 12d” value is reported as -1.50%. The “activity in the screen at 10 μM (confirmed in triplicates, >20% relative PGI release)” value (10 μM, 5 and 12 days) is reported as “active”. Further, under setting [1], the “PGI release, % … average, 5d” value was 0.62% and the “PGI release, % … average, 12d” value was determined as 52.89%.

As to `O=C(Nc1n[nH]c(=S)s1)c1cc(Br)ccc1Cl` [MMV676492], the “PGI release, % of the Tx-100 control, 5d” value turned out to be 5.74% and the “PGI release, % of the Tx-100 control, 12d” value is recorded as 1.03%.

As for `O=C(NCCN1CCCC1)c1cc(NCCCCN2CCC(F)(F)CC2)nc2ccc(Cl)cc12` [MMV667494], the “PGI release, % of the Tx-100 control, 5d” value is -0.60% and the “PGI release, % of the Tx-100 control, 12d” value is -1.11%.

These data come from paper PMC6216040, “Repurposing of an old drug: In vitro and in vivo efficacies of buparvaquone against Echinococcus multilocularis” (International Journal for Parasitology: Drugs and Drug …, 2018).
